Broadly, the Kd is the constant that tells how readily two partners part at equilibrium. The IC50 is the concentration at which inhibition is half-maximal.

Counter-ions that a name gives are not always drawn.

One experiment has as its target T1, Human (6-His)Sortilin (Homo sapiens, UniProt Q99523).
T1 construct: purchased RnD Systems
T1 sequence (Q99523 78-831): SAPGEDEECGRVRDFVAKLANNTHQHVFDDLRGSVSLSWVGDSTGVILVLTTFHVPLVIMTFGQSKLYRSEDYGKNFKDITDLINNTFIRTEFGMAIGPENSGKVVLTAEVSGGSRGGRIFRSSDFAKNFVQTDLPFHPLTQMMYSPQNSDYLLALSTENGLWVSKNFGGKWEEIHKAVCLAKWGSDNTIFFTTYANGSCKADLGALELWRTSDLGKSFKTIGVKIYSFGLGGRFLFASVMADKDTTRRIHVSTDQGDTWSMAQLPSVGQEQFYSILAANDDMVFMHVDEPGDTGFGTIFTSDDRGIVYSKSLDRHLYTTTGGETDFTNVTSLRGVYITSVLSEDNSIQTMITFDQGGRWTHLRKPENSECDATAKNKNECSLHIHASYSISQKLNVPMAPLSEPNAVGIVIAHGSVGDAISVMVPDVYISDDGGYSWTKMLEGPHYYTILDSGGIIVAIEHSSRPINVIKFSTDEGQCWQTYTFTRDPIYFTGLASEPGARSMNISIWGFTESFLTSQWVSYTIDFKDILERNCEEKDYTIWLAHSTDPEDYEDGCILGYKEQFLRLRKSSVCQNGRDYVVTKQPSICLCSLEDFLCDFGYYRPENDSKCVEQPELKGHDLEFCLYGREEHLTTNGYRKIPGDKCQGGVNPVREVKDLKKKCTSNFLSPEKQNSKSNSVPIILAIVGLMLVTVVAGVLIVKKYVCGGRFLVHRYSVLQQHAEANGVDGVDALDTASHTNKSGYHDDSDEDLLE
In words: Human Sortilin GCI (Grating-Coupled Interferometry) binding assay. As to conditions: immobilised Human (6-His)Sortilin, Creoptix WAVE-RAPID, single concentration, 1:1 kinetic model; read-out: h-Sortilin GCI KD.

The next experiment has as its target T2, h-Sortilin (Homo sapiens, UniProt Q99523).
T2 sequence (Q99523 78-831): T1 sequence (Q99523 78-831)
In words: Neurotensin scintillation proximity assay (SPA). As to conditions: displacement of 5 nM [3H]-Neurotensin, 150 nM 6his-Sortilin; average of at least 2 determinations. Format: binding. The method, then:
NTS, which is a 13 amino acid neuropeptide, is a sortilin ligand. […] Compound affinity was determined by measuring the displacement of [^3H]-neurotensin binding to h-Sortilin in SPA format. Total volume of 40 µl in 50 mM HEPES pH 7.4 assay buffer containing 100 mM NaCl, 2.0 mM CaCl2, 0.1 % BSA and 0.1 % Tween-20. Compound pre-incubation for 30 minutes at room temperature with 150 nM of 6his-Sortilin before 5 nM [3H]-Neurotensin and Ni chelate imaging beads (Perkin Elmer) were added, after 6 hours the plate was read on a ViewLux with 360 s exposure time. Dose-response evaluation of compounds was performed with 8 concentrations of drugs (covering 3 decades). IC50 values were calculated by nonlinear regression using the sigmoid concentration-response (variable slope) using CDD Vault software. All values reported are average of at least 2 determinations.
In general terms: In a scintillation proximity assay essentially only radioactivity close to the scintillant gives light.

In experiment [1] the target is T3, Sortilin receptor at the cell surface (Homo sapiens, UniProt Q99523).
T3 construct: expressed in transfected cells; host or cells: HEK293
T3 sequence (Q99523 78-831): T1 sequence (Q99523 78-831)
In words: Progranulin cell surface engagement assay. The experiment is classed as cell-based. As to conditions: displacement of 100 nM PGRN-AF647, HEK293 engineered to express sortilin, on ice; average of at least 2 determinations. Here is the method:
PGRN is a sortilin ligand.
Compound affinity was determined by measuring the ability of compounds to displace the binding of Progranulin-Alexa Fluor 647 (PGRN-AF647) binding to the Sortilin receptor at the cell surface. HEK293 engineered to express sortilin were pre-incubated with compound for 30 minutes on ice in 20 µl assay buffer containing 1% BSA in PBS. Dose-response evaluation of compounds was performed with 10 concentrations of drugs (10 point half log curve). PGRN-AF647 was added at 100 nM concentration in 20 µl assay buffer for 2 hours on ice. Data was acquired using iQue flow cytometer (IntelliCyt). IC50 values were calculated by nonlinear regression using the sigmoid concentration-response (variable slope) using CDD Vault software. All values reported are average of at least 2 determinations.

Turning to `CC(C)(C)CC[C@](C)(NCc1ccccc1)C(=O)O` [Example 2, (S)-2-benzylamino-2,5,5-trimethylhexanoic acid], the Kd at Human (6-His)Sortilin came out at 393 nM. On h-Sortilin, this compound yielded an IC50 of 2970 nM. On to `CC(C)(C)CC[C@](C)(NCc1cncnc1)C(=O)O` (single isomer, unassigned) [Example 10], for which the Kd on Human (6-His)Sortilin was 804 nM. The IC50 in experiment [1] came to 680 nM; on h-Sortilin it was 383 nM.

As to `COc1cccc(CN[C@@](C)(CCC(C)(C)C)C(=O)O)c1` [Example 5, (S)-2-((3-methoxybenzyl)amino)-2,5,5-trimethylhexanoic acid hydrochloride], the IC50 at h-Sortilin stood at 1330 nM. Regarding `CC(C)(C)CC[C@@](C)(NCc1ccccc1)C(=O)O` [Example 3, (R)-2-benzylamino-2,5,5-trimethylhexanoic acid], the equilibrium dissociation constant (Kd) at Human (6-His)Sortilin stood at 21400 nM. In the case of `CC(C)(C)CCC(C)(NCc1cncnc1)C(=O)O` (racemic) [Example 8, 2,5,5-trimethyl-2-{[(5-pyrimidinyl)methyl]amino}hexanoic acid], on Human (6-His)Sortilin, the Kd worked out at 4220 nM. Also, the half-inhibitory concentration (IC50) on h-Sortilin was 840 nM.

The compound `CC(C)(C)CCC(C)(NCCCc1ccccc1)C(=O)O` (racemic) [Example 9, 2,5,5-trimethyl-2-(3-phenylpropylamino)hexanoic acid] gave an IC50 at h-Sortilin of 9740 nM. With `CC(C)(C)CCC(C)(NCc1cncnc1)C(=O)O` (stereo not drawn) [Example 11], the Kd on Human (6-His)Sortilin came to 73500 nM.

In the case of `COc1cccc(CNC(C)(CCC(C)(C)C)C(=O)O)c1` (racemic) [Example 4, 2-((3-methoxybenzyl)amino)-2,5,5-trimethylhexanoic acid hydrochloride], the IC50 on h-Sortilin stood at 4020 nM. As to `CC(C)(C)CCC(C)(NCc1ccccc1)C(=O)O` (racemic) [Example 1, rac-2-benzylamino-2,5,5-trimethylhexanoic acid], the Kd on Human (6-His)Sortilin turned out to be 621 nM. In addition, the IC50 on h-Sortilin was found to be 2500 nM. As for `COc1cccc(CNC(C)(CCC(C)C)C(=O)O)c1` (racemic) [Example 7, 2-{[(m-methoxyphenyl)methyl]amino}-2,5-dimethylhexanoic acid], at Human (6-His)Sortilin, the Kd amounted to 1270 nM.

Values taken from patent EP4428124A1, “MODULATORS OF SORTILIN ACTIVITY” (Vesper Bio Aps, priority 2023, dated 2024).
